Laboratory results reported in patent US20260285856A1, “A 1,5-DIHYDRO-4H-PYRROLO[3,2-C] PYRIDIN-4-ONE FOR USE IN THE TREATMENT OF CANCER” (ANTARES THERAPEUTICS, INC., priority 2023, published 2026).

How the values were obtained:
Assay type in all cases: cell-based
[1] = biological target: T1, EGFR WT (Homo sapiens, UniProt P00533); experiment: Ba/F3 cell viability (CellTiter-Glo), EGFR WT; details: Ba/F3 cells expressing EGFR WT, supplemental EGF, 72 hours, read-out: BaF3 WT IC50
T1 construct: expressed in transfected cells; host or cells: Ba/F3 (murine pro-B cells), retroviral transduction; maintained with supplemental EGF
From the text: (§1) Cell lines are generated by transducing Ba/F3 cells with retroviruses containing vectors with EGFR WT, EGFR exon 20 NPG Ins D770_N771, EGFR exon 20 ASV Ins V769_D770, EGFR exon 20 SVD Ins D770_N771, or EGFR exon 20 FQEA Ins A763_V764 genes and a puromycin selection marker. Transduced cells are selected with puromycin for 7 days and are then be transferred into culture media without Interleukin 3 (IL3). EGFR WT cells are maintained with supplemental EGF. Surviving cells are confirmed to express EGFR by Western blot and maintained as a pool. The IC50 data are included in Table 6.
(§2) • 1.1 Cells are harvested from flask into cell culture medium and the cell number counted. • 1.2 Cells are diluted with culture medium to the desired density and 40 NL of cell suspension is added into each well of 384-well cell culture plate and the seeding density is 600 cells/well.
(§3) • 2.1 Test compounds are dissolved to 10 mM in a DMSO stock solution. […]
(§4) • 3.1 Plates are removed from incubators and equilibrated at room temperature for 15 minutes. • 3.2 Thaw the CellTiter Glo reagents and allow to equilibrate to room temperature before the experiment. • 3.3 Add 40 μL of CellTiter-Glo reagent into each well (at 1:1 to culture medium). Then place the plates at room temperature for 30 min followed by reading on EnVision.
(§5) • 4.1 Inhibition activity is calculated following the formula below: […]

[2] = biological target: T2, EGFR exon 20 SVD Ins D770_N771 (Homo sapiens, UniProt P00533, INS770SVD); experiment: Ba/F3 cell viability (CellTiter-Glo), EGFR exon 20 SVD insertion; details: Ba/F3 cells expressing EGFR exon 20 SVD Ins D770_N771, 72 hours, read-out: BaF3 SVD IC50
T2 construct: expressed in transfected cells; host or cells: Ba/F3 (murine pro-B cells), retroviral transduction, puromycin selection, IL3 withdrawal
From the text: as §1, §2, §3, §4, §5

[3] = biological target: T3, EGFR exon 20 NPG Ins D770_N771 (Homo sapiens, UniProt P00533, INS770NPG); experiment: Ba/F3 cell viability (CellTiter-Glo), EGFR exon 20 NPG insertion; details: Ba/F3 cells expressing EGFR exon 20 NPG Ins D770_N771, 72 hours, read-out: BaF3 NPG IC50
T3 construct: expressed in transfected cells; host or cells: Ba/F3 (murine pro-B cells), retroviral transduction, puromycin selection, IL3 withdrawal
From the text: as §1, §2, §3, §4, §5

[4] = biological target: T4, EGFR exon 20 ASV Ins V769_D770 (Homo sapiens, UniProt P00533, INS769ASV); experiment: Ba/F3 cell viability (CellTiter-Glo), EGFR exon 20 ASV insertion; details: Ba/F3 cells expressing EGFR exon 20 ASV Ins V769_D770, 72 hours, read-out: BaF3 ASV IC50
T4 construct: expressed in transfected cells; host or cells: Ba/F3 (murine pro-B cells), retroviral transduction, puromycin selection, IL3 withdrawal
From the text: as §1, §2, §3, §4, §5

[5] = biological target: EGFR phosphorylation (pEGFR) in CUTO14 cells (Homo sapiens, UniProt P00533, INS769ASV); experiment: EGFR phosphorylation (pEGFR) AlphaLISA in CUTO14 cells; details: 2 hours
From the text: EGFR mutant Ba/F3 cells were generated by transduction with retrovirus containing vectors expressing EGFR exon 20 NPG Ins D770_N771, EGFR exon 20 ASV Ins V769_D770, or EGFR exon 20 SVD Ins D770_N771 genes along with a puromycin selection marker. Transduced cells are selected with puromycin for 7 days and are then be transferred into culture media without Interleukin 3 (IL3). Surviving cells are confirmed to express EGFR by Western blot and maintained as a pool. CUTO14 cells were obtained from Dr. Robert C. Doebele at the University of Colorado. The IC50 data are included in Table 6.
as §2, with “μL” for “NL”, “50K cells/well (Ba/F3) or 12.5K cells/well (CUTO14).” for “600 cells/well.”
• 2.1 Test compounds are dissolved to 10 mM in a DMSO stock solution. 45 μL of stock solution is transferred to a 384 polypropylene plate (pp-plate). […] Mix well on the shaker, seal and wrap in aluminum foil and incubate 1.5 hrs at room temperature in the dark • 3.5 Transfer 18.5 μL mixture to OptiPlate 384, and read using an Envision.

[6] = tested on: EGFR mutant versus EGFR WT; experiment: EGFR mutant potency and selectivity against EGFR WT, compared with the enantiomer; details: relative to its enantiomer (compound 635 in WO 2022/066734)
From the text: as §1

EGFR phosphorylation (pEGFR) in CUTO14 cells, sequence (P00533 with tags, fused parts or gaps INS769ASV): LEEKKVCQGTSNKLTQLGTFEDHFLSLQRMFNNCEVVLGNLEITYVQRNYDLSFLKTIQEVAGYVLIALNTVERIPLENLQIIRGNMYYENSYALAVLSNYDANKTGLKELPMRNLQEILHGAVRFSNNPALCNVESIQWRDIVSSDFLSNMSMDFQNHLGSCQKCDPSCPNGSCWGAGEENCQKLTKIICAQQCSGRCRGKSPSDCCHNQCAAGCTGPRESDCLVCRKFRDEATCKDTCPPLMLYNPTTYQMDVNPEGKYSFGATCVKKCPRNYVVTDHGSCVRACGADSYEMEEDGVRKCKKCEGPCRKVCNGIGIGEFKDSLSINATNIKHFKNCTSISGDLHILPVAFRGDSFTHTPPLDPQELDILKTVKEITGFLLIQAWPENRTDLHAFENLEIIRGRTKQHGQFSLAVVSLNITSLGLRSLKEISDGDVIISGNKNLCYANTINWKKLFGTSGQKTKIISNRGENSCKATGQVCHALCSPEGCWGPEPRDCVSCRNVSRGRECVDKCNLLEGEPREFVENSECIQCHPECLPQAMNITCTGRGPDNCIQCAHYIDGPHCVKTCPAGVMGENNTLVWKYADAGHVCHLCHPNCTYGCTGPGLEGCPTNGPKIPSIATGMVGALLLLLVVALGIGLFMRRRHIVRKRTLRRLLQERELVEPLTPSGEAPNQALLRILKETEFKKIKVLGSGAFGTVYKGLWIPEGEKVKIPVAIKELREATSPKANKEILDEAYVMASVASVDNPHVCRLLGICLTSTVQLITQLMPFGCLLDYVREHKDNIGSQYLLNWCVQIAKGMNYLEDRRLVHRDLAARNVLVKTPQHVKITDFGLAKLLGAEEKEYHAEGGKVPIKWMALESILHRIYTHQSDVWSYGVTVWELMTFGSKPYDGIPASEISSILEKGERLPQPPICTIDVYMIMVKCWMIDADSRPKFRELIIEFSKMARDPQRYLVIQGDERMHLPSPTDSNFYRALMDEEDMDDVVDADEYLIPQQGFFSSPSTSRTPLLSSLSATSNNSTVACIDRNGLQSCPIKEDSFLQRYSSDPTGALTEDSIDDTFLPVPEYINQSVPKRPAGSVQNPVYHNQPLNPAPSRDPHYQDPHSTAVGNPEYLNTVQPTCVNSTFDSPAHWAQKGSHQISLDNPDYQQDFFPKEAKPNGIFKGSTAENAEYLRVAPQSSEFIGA
T4 sequence (P00533 with tags, fused parts or gaps INS769ASV): as above
T2 sequence (P00533 with tags, fused parts or gaps INS770SVD): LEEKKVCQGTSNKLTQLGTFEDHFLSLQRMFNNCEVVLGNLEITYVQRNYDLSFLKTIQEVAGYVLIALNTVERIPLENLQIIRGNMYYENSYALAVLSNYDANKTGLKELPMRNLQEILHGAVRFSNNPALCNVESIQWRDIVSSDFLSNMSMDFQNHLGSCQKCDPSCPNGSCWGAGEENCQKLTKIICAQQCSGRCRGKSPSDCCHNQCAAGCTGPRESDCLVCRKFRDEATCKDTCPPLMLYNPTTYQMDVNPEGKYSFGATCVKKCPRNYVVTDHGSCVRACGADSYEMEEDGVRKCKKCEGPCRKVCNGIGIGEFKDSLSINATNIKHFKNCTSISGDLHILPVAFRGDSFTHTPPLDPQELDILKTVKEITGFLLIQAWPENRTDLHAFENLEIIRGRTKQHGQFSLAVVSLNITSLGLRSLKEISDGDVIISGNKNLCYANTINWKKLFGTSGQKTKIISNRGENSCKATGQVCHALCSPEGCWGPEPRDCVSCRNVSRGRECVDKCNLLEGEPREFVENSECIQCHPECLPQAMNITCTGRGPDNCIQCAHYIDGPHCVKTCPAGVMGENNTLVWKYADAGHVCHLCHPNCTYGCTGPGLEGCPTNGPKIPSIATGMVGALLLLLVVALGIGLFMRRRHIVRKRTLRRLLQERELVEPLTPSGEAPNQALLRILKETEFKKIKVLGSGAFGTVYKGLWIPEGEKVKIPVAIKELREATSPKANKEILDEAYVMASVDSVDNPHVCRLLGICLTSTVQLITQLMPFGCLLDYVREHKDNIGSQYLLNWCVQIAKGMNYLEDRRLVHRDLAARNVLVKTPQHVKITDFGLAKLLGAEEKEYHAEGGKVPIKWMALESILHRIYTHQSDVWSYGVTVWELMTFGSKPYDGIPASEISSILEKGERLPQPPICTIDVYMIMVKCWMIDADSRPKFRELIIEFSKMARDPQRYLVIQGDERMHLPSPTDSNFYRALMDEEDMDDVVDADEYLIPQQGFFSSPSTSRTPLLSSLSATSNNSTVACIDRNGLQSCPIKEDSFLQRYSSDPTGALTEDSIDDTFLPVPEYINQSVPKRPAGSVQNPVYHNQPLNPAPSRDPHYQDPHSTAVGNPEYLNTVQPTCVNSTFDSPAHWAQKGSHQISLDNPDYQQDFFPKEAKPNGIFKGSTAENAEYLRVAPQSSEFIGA
T1 sequence (P00533 25-1210): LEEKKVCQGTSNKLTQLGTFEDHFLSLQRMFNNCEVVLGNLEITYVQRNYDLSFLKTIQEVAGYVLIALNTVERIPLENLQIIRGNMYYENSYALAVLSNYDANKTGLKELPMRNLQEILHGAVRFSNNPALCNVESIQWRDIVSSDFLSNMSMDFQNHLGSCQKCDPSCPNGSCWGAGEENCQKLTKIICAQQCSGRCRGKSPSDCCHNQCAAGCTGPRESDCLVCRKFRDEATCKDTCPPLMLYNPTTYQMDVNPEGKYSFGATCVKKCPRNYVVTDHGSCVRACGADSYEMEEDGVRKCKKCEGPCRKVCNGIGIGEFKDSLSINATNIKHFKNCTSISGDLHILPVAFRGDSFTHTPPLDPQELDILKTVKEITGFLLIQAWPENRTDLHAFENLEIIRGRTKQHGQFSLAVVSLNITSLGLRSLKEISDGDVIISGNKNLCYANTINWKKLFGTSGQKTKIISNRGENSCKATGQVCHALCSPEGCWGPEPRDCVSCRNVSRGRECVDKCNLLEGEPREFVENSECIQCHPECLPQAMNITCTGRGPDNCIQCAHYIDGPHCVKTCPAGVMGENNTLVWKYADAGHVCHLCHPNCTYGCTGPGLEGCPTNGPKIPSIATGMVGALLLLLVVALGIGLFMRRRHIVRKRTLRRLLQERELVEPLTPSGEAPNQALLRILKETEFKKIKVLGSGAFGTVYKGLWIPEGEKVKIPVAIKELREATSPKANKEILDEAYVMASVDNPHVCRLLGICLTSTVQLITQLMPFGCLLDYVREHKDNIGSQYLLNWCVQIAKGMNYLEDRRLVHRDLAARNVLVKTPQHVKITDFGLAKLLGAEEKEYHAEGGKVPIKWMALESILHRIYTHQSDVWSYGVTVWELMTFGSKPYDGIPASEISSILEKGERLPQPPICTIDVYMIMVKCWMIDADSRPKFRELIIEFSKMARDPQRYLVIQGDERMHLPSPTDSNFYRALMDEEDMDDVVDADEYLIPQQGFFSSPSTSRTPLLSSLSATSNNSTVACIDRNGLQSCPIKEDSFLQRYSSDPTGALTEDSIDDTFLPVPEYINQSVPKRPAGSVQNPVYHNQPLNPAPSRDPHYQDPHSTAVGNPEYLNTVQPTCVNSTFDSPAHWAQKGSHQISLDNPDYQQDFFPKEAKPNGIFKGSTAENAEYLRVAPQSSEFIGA

Structure (SMILES): COc1c(Cl)cccc1Nc1c(-c2ccncc2C#C[C@@]2(C)CCCN2C(=O)/C=C/CN(C)C)[nH]c2cc[nH]c(=O)c12 [(I), 3-[(3-chloro-2-methoxyphenyl)amino]-2-(3-{2-[(2R)-1-[(2E)-4-(dimethylamino)but-2-enoyl]-2-methylpyrrolidin-2-yl]ethynyl}pyridin-4-yl)-1H,5H-pyrrolo[3,2-c]pyridin-4-one]
- IC50 [1]: ≥ 1000 nM
- IC50 [2]: < 100 nM
- IC50 [3]: < 100 nM
- IC50 [4]: < 100 nM
- IC50 [5]: < 100 nM
- EGFR mutant potency and selectivity against EGFR WT [6]: greater than the potency and selectivity exhibited by its enantiomer
